From patent publication US9758529B2, “Fused dihydro-4H-pyrazolo[5,1-C][1,4]oxazinyl compounds and analogs for treating CNS disorders” (Sunovion Pharmaceuticals Inc., priority 2015, dated 2017)

Test system: mice
Experiment: Neuropharmacological Assay (SmartCube)
Type: in vivo
Details: i.p. 15 min before behavioral test; 3 doses, most efficacious dose(s) presented

Row | Compound | AD: ADHD (probability of class match) | AG: analgesic (probability of class match) | AX: anxiolytic (probability of class match) | CE: cognitive enhancer (probability of class match) | DP: anti-depressant (probability of class match) | HA: hallucinogen (probability of class match) | MS: mood stabilizer (probability of class match) | PS: anti-psychotic (probability of class match) | SD: sedative hypnotic (probability of class match) | UN: uncharacterized CNS activity (probability of class match)
1 | CN(CC1OCCCn2nc3ccccc3c21)C1CCC1.Cl (stereo not drawn) [Compound 55, N-((4,5-dihydro-1H,3H-[1,4]oxazepino[4,3-b]indazol-1-yl)methyl)-N-methylcyclobutanaminium chloride] | + (LOQ≦ + <5%) | + (LOQ≦ + <5%) | ++ (5%≦ ++ <25%) | + (LOQ≦ + <5%) | + (LOQ≦ + <5%) | + (LOQ≦ + <5%) | + (LOQ≦ + <5%) | + (LOQ≦ + <5%) | + (LOQ≦ + <5%) | +++ (25%≦ +++ <50%)
2 | Cl.NCC1OCCCn2nc3ccccc3c21 (stereo not drawn) [Compound 56, (4,5-dihydro-1H,3H-[1,4]oxazepino[4,3-b]indazol-1-yl)methanaminium chloride] | + (LOQ≦ + <5%) | + (LOQ≦ + <5%) | + (LOQ≦ + <5%) | + (LOQ≦ + <5%) | + (LOQ≦ + <5%) | + (LOQ≦ + <5%) | + (LOQ≦ + <5%) | + (LOQ≦ + <5%) | + (LOQ≦ + <5%) | + (LOQ≦ + <5%)
3 | CCNCC1OCCCn2nc3ccccc3c21.Cl (stereo not drawn) [Compound 57, N-((4,5-dihydro-1H,3H-[1,4]oxazepino[4,3-b]indazol-1-yl)methyl)ethanaminium chloride] | + (LOQ≦ + <5%) | + (LOQ≦ + <5%) | + (LOQ≦ + <5%) | + (LOQ≦ + <5%) | + (LOQ≦ + <5%) | + (LOQ≦ + <5%) | + (LOQ≦ + <5%) | + (LOQ≦ + <5%) | + (LOQ≦ + <5%) | + (LOQ≦ + <5%)
4 | CNCC1OCCn2nc3ccsc3c21.Cl (stereo not drawn) [Compound 58, 1-(6,7-dihydro-9H-thieno[3′,2′:3,4]pyrazolo[5,1-c][1,4]oxazin-9-yl)-N-methylmethanaminium chloride] | ++ (5%≦ ++ <25%) | + (LOQ≦ + <5%) | ++ (5%≦ ++ <25%) | + (LOQ≦ + <5%) | ++++ (50%≦ ++++) | ++ (5%≦ ++ <25%) | + (LOQ≦ + <5%) | + (LOQ≦ + <5%) | ++ (5%≦ ++ <25%) | + (LOQ≦ + <5%)
5 | CN(C)CC1OCCn2nc3ccsc3c21.Cl (stereo not drawn) [Compound 59, 1-(6,7-dihydro-9H-thieno[3′,2′:3,4]pyrazolo[5,1-c][1,4]oxazin-9-yl)-N,N-dimethylmethanaminium chloride] | + (LOQ≦ + <5%) | ++ (5%≦ ++ <25%) | ++ (5%≦ ++ <25%) | ++ (5%≦ ++ <25%) | ++ (5%≦ ++ <25%) | + (LOQ≦ + <5%) | + (LOQ≦ + <5%) | ++ (5%≦ ++ <25%) | + (LOQ≦ + <5%) | +++ (25%≦ +++ <50%)
6 | Cl.NCC1OCCn2nc3ccsc3c21 (stereo not drawn) [Compound 60, (6,7-dihydro-9H-thieno[3′,2′:3,4]pyrazolo[5,1-c][1,4]oxazin-9-yl)methanaminium chloride] | ++ (5%≦ ++ <25%) | + (LOQ≦ + <5%) | +++ (25%≦ +++ <50%) | + (LOQ≦ + <5%) | ++ (5%≦ ++ <25%) | + (LOQ≦ + <5%) | + (LOQ≦ + <5%) | + (LOQ≦ + <5%) | ++ (5%≦ ++ <25%) | + (LOQ≦ + <5%)
7 | CNCC1OCCn2nc3cnccc3c21.Cl.Cl (stereo not drawn) [Compound 61, 1-((methylammonio)methyl)-3,4-dihydro-1H-pyrido[3′,4′:3,4]pyrazolo[5,1-c][1,4]oxazin-8-ium chloride] | ++ (5%≦ ++ <25%) | + (LOQ≦ + <5%) | + (LOQ≦ + <5%) | + (LOQ≦ + <5%) | ++++ (50%≦ ++++) | ++ (5%≦ ++ <25%) | + (LOQ≦ + <5%) | + (LOQ≦ + <5%) | + (LOQ≦ + <5%) | ++ (5%≦ ++ <25%)
8 | CN(C)CC1OCCn2nc3cnccc3c21.Cl.Cl (stereo not drawn) [Compound 62, 1-((dimethylammonio)methyl)-3,4-dihydro-1H-pyrido[3′,4′:3,4]pyrazolo[5,1-c][1,4]oxazin-8-ium chloride] | + (LOQ≦ + <5%) | + (LOQ≦ + <5%) | ++ (5%≦ ++ <25%) | + (LOQ≦ + <5%) | + (LOQ≦ + <5%) | + (LOQ≦ + <5%) | + (LOQ≦ + <5%) | + (LOQ≦ + <5%) | + (LOQ≦ + <5%) | + (LOQ≦ + <5%)
9 | c1ccc2c3n(nc2c1)CCOC3CN1CC1 (stereo not drawn) [Compound 63, 1-(aziridin-1-ylmethyl)-3,4-dihydro-1H-[1,4]oxazino[4,3-b]indazole] | + (LOQ≦ + <5%) | +++ (25%≦ +++ <50%) | + (LOQ≦ + <5%) | + (LOQ≦ + <5%) | ++ (5%≦ ++ <25%) | + (LOQ≦ + <5%) | + (LOQ≦ + <5%) | + (LOQ≦ + <5%) | ++ (5%≦ ++ <25%) | + (LOQ≦ + <5%)
10 | c1ccc2c3n(nc2c1)CCOC3[C@@H]1CCN1 (stereo partly drawn) [Compound 64, (2S)-2-(3,4-dihydro-1H-[1,4]oxazino[4,3-b]indazol-1-yl)azetidin-1-ium chloride] | ++++ (50%≦ ++++) | ++ (5%≦ ++ <25%) | ++ (5%≦ ++ <25%) | + (LOQ≦ + <5%) | ++ (5%≦ ++ <25%) | + (LOQ≦ + <5%) | + (LOQ≦ + <5%) | + (LOQ≦ + <5%) | + (LOQ≦ + <5%) | +++ (25%≦ +++ <50%)
11 | CN1CC[C@H]1C1OCCn2nc3ccccc3c21 (stereo partly drawn) [Compound 65, ((2S)-2-(3,4-dihydro-1H-[1,4]oxazino[4,3-b]indazol-1-yl)-1-methylazetidin-1-ium chloride] | + (LOQ≦ + <5%) | +++ (25%≦ +++ <50%) | ++ (5%≦ ++ <25%) | ++ (5%≦ ++ <25%) | ++ (5%≦ ++ <25%) | + (LOQ≦ + <5%) | + (LOQ≦ + <5%) | + (LOQ≦ + <5%) | ++ (5%≦ ++ <25%) | + (LOQ≦ + <5%)
12 | c1ccc2c3n(nc2c1)CCOC3C1CNC1 (stereo not drawn) [Compound 66, 3-(3,4-dihydro-1H-[1,4]oxazino[4,3-b]indazol-1-yl)azetidin-1-ium chloride] | + (LOQ≦ + <5%) | ++ (5%≦ ++ <25%) | ++ (5%≦ ++ <25%) | + (LOQ≦ + <5%) | ++ (5%≦ ++ <25%) | + (LOQ≦ + <5%) | + (LOQ≦ + <5%) | + (LOQ≦ + <5%) | + (LOQ≦ + <5%) | + (LOQ≦ + <5%)

Same assay, conditions: i.p. 15 min before behavioral test; 3 doses, most efficacious dose(s) presented

Row | Compound | XG: anxiogenic (probability of class match)
13 | CN(CC1OCCCn2nc3ccccc3c21)C1CCC1.Cl (stereo not drawn) [Compound 55, N-((4,5-dihydro-1H,3H-[1,4]oxazepino[4,3-b]indazol-1-yl)methyl)-N-methylcyclobutanaminium chloride] | + (LOQ≦ + <5%)
14 | Cl.NCC1OCCCn2nc3ccccc3c21 (stereo not drawn) [Compound 56, (4,5-dihydro-1H,3H-[1,4]oxazepino[4,3-b]indazol-1-yl)methanaminium chloride] | + (LOQ≦ + <5%)
15 | CCNCC1OCCCn2nc3ccccc3c21.Cl (stereo not drawn) [Compound 57, N-((4,5-dihydro-1H,3H-[1,4]oxazepino[4,3-b]indazol-1-yl)methyl)ethanaminium chloride] | + (LOQ≦ + <5%)
16 | CNCC1OCCn2nc3ccsc3c21.Cl (stereo not drawn) [Compound 58, 1-(6,7-dihydro-9H-thieno[3′,2′:3,4]pyrazolo[5,1-c][1,4]oxazin-9-yl)-N-methylmethanaminium chloride] | + (LOQ≦ + <5%)
17 | CN(C)CC1OCCn2nc3ccsc3c21.Cl (stereo not drawn) [Compound 59, 1-(6,7-dihydro-9H-thieno[3′,2′:3,4]pyrazolo[5,1-c][1,4]oxazin-9-yl)-N,N-dimethylmethanaminium chloride] | + (LOQ≦ + <5%)
18 | Cl.NCC1OCCn2nc3ccsc3c21 (stereo not drawn) [Compound 60, (6,7-dihydro-9H-thieno[3′,2′:3,4]pyrazolo[5,1-c][1,4]oxazin-9-yl)methanaminium chloride] | + (LOQ≦ + <5%)
19 | CNCC1OCCn2nc3cnccc3c21.Cl.Cl (stereo not drawn) [Compound 61, 1-((methylammonio)methyl)-3,4-dihydro-1H-pyrido[3′,4′:3,4]pyrazolo[5,1-c][1,4]oxazin-8-ium chloride] | + (LOQ≦ + <5%)
20 | CN(C)CC1OCCn2nc3cnccc3c21.Cl.Cl (stereo not drawn) [Compound 62, 1-((dimethylammonio)methyl)-3,4-dihydro-1H-pyrido[3′,4′:3,4]pyrazolo[5,1-c][1,4]oxazin-8-ium chloride] | + (LOQ≦ + <5%)
21 | c1ccc2c3n(nc2c1)CCOC3CN1CC1 (stereo not drawn) [Compound 63, 1-(aziridin-1-ylmethyl)-3,4-dihydro-1H-[1,4]oxazino[4,3-b]indazole] | + (LOQ≦ + <5%)
22 | c1ccc2c3n(nc2c1)CCOC3[C@@H]1CCN1 (stereo partly drawn) [Compound 64, (2S)-2-(3,4-dihydro-1H-[1,4]oxazino[4,3-b]indazol-1-yl)azetidin-1-ium chloride] | + (LOQ≦ + <5%)
23 | CN1CC[C@H]1C1OCCn2nc3ccccc3c21 (stereo partly drawn) [Compound 65, ((2S)-2-(3,4-dihydro-1H-[1,4]oxazino[4,3-b]indazol-1-yl)-1-methylazetidin-1-ium chloride] | ++ (5%≦ ++ <25%)
24 | c1ccc2c3n(nc2c1)CCOC3C1CNC1 (stereo not drawn) [Compound 66, 3-(3,4-dihydro-1H-[1,4]oxazino[4,3-b]indazol-1-yl)azetidin-1-ium chloride] | + (LOQ≦ + <5%)
